Source: patent publication US12421222B2 (AUGUSTINE THERAPEUTICS, priority 2021, dated 2025)

system: acetylated tubulin (Lys40) in HeLa cells; assay: Acetylated α-tubulin measurement in vitro (immunocytochemistry); type: cell-based; settings: Homo sapiens, 6 hours incubation, acetylated tubulin (Lys40) by immunocytochemistry, read-out: IC50 (Tubulin deacetylation)
Procedure: HeLa cells were cultured in UltraCulture serum-free medium (Lonza) supplemented with 2 mM glutamine (Lonza). Assays were performed at 96-well or 384-well format, differences in assay protocols are detailed in Table 6. Cells per well were plated and incubated overnight at 37° C. overnight in a humidified atmosphere containing 5% CO2. Cell density and seeding volumes are detailed in Table 6. Compounds (dissolved in 100% DMSO) or DMSO (vehicle) were added manually by diluting them in culture medium at 10× final assay concentration and adding 10 μL to cells (96-well protocol). Alternatively, 50 nL compound was added directly to the cell culture using the Echo650 (Labcyte) (384-well protocol). In this assay, the final assay concentration of DMSO is 0.1%-0.4%. Trichostatin A (TSA) was used as a positive control. Cells were incubated with compounds at 37° C. in a humidified atmosphere containing 5% CO2 for 6 hours. Levels of acetylated tubulin (Lys40) were assessed by immunocytochemistry using target-specific antibodies. Cells were fixed with 4% PFA at RT as detailed in Table 6. After 2-3 wash steps with PBS, cells were permeabilized with 0.5% Triton in PBS at RT for 10 minutes followed by 1-2 washes with PBS. To avoid non-specific antibody staining, cells were blocked with 3% BSA in PBS at room temperature for 1 hour. […] Cells were washed 2-3 times with PBS and labelled for 1 h at RT with goat anti-mouse conjugated with Alexa 647 (Thermofisher) and goat anti-rabbit conjugated with Alexa 555 (Thermofisher) secondary antibodies, diluted in 1% BSA to a final concentration of 1:1000. Simultaneously, nuclei were stained with 1:10000-1:15000 Hoechst (Thermofisher). Incubation time and temperature of the primary antibodies are detailed in Table 6. Cells were washed 2-3 times with PBS and they were imaged with the Operetta CLS or Opera Phenix (PerkinElmer). Imaging is further detailed in Table 6. For imaging analysis, the Harmony analysis software (PerkinElmer) was used. Cytoplasmic (defined by total α-tubulin staining) intensities per well were used for α-tubulin (acetylated and total) quantification. Intensities were measured per cell and then averaged per well. Mean intensity levels of acetylated tubulin were normalized to the mean intensity levels of total tubulin. The changes in acetylated tubulin were normalized for each plate using GraphPad Prism software: tubulin acetylation in vehicle (DMSO)-treated cells were set to 0% while tubulin acetylation in TSA-treated cells were set to 100%. EC50 values were calculated using the log(inhibitor) vs. response—Variable slope (four parameters) nonlinear regression in GraphPad Prism software.

IC50, 1000 to 3330 nM:
Cn1ncc2c(SCC(=O)c3ccc(C4CCN(C(=O)CO)C4)s3)ncnc21 (stereo not shown) [Example 86, 2-hydroxy-1-(3-(5-(2-((1-methyl-1H-pyrazolo[3,4-d]pyrimidin-4-yl)thio)acetyl)thiophen-2-yl)157yrrolidine-1-yl)ethan-1-one]
Cn1ncc2c(SCC(=O)c3ccc(CNS(C)(=O)=O)s3)ncnc21 [Example 87]
Cc1nc(SCC(=O)c2ccc(CNS(C)(=O)=O)s2)c2ccccc2n1 [Example 97, N-((5-(2-((2-methylquinazolin-4-yl)thio)acetyl)thiophen-2-yl)methyl)methanesulfonamide]
CS(=O)(=O)NCCc1ccc(C(=O)CSc2nc(C(F)(F)F)nc3ccccc23)s1 [Example 98, N-(2-(5-(2-((2-(trifluoromethyl)quinazolin-4-yl)thio)acetyl)thiophen-2-yl)ethyl)methanesulfonamide]

IC50, 100 to 500 nM:
Cc1nc(SCC(=O)c2ccc(CNC(=O)CO)s2)c2cc(C3CC3)ccc2n1 [Example 106, N-((5-(2-((6-cyclopropyl-2-methylquinazolin-4-yl)thio)acetyl)thiophen-2-yl)methyl)-2-hydroxyacetamide]
Cc1cc2nc(C(F)(F)F)nc(SCC(=O)c3ccc(CNC(=O)CO)s3)n2n1 [Example 107, 2-hydroxy-N-((5-(2-((7-methyl-2-(trifluoromethyl)pyrazolo[1,5-a][1,3,5]triazin-4-yl)thio)acetyl)thiophen-2-yl)methyl)acetamide]
COc1cc(F)c2nc(C)nc(SCC(=O)c3ccc(CNC(=O)CO)s3)c2c1 [Example 108, N-((5-(2-((8-fluoro-6-methoxy-2-methylquinazolin-4-yl)thio)acetyl)thiophen-2-yl)methyl)-2-hydroxyacetamide]
COc1ccc2nc(C)nc(SCC(=O)c3ccc(CN(C)C(=O)CO)s3)c2c1 [Example 109, 2-hydroxy-N-((5-(2-((6-methoxy-2-methylquinazolin-4-yl)thio)acetyl)thiophen-2-yl)methyl)-N-methylacetamide]
Cn1cc2c(SCC(=O)c3ccc(CNC(=O)C4CC4(F)F)s3)nc(C(F)(F)F)nc2n1 (stereo not shown) [Example 111, 2,2-difluoro-N-((5-(2-((2-methyl-6-(trifluoromethyl)-2H-pyrazolo[3,4-d]pyrimidin-4-yl)thio)acetyl)thiophen-2-yl)methyl)cyclopropane-1-carboxamide]
O=C(CO)NCc1ccc(C(=O)CSc2nc(C(F)(F)F)nc3cc(C4CC4)nn23)s1 [Example 112, N-((5-(2-((7-cyclopropyl-2-(trifluoromethyl)pyrazolo[1,5-a][1,3,5]triazin-4-yl)thio)acetyl)thiophen-2-yl)methyl)-2-hydroxyacetamide]
CN(Cc1ccc(C(=O)CSc2nc(C(F)(F)F)nc3nn(C)cc23)s1)C(=O)CO [Example 116, 2-hydroxy-N-methyl-N-((5-(2-((2-methyl-6-(trifluoromethyl)-2H-pyrazolo[3,4-d]pyrimidin-4-yl)thio)acetyl)thiophen-2-yl)methyl)acetamide]
O=C(CO)NCc1ccc(C(=O)CSc2nc3ncc(C(F)(F)F)cc3o2)s1 [Example 118, 2-hydroxy-N-((5-(2-((6-(trifluoromethyl)oxazolo[4,5-b]157yrrolid-2-yl)thio)acetyl)thiophen-2-yl)methyl)acetamide]
Cc1nc(SCC(=O)c2ccc(CNC(=O)C3CC3(F)F)s2)c2cc(OC(F)(F)F)ccc2n1 (stereo not shown) [Example 120, 2,2-difluoro-N-((5-(2-((2-methyl-6-(trifluoromethoxy)quinazolin-4-yl)thio)acetyl)thiophen-2-yl)methyl)cyclopropane-1-carboxamide]

IC50, 500 to 1000 nM:
CS(=O)(=O)N1CCC(c2ccc(C(=O)CSc3nc(C(F)(F)F)nc4ccccc34)s2)C1 (stereo not shown) [Example 95, 1-(5-(1-(methylsulfonyl)161yrrolidine-3-yl)thiophen-2-yl)-2-((2-(trifluoromethyl)quinazolin-4-yl)thio)ethanone]
COc1ccc2nc(C)nc(SCC(=O)c3ccc(CCN4CCC(O)C4=O)s3)c2c1 (stereo not shown) [Example 115, 3-hydroxy-1-(2-(5-(2-((6-methoxy-2-methylquinazolin-4-yl)thio)acetyl)thiophen-2-yl)ethyl)pyrrolidin-2-one]

IC50, > 3330 nM:
CN(Cc1ccc(C(=O)CSc2ncnc3c2cnn3C)s1)S(=O)(=O)C1CC1 [Example 91, N-methyl-N-((5-(2-((1-methyl-1H-pyrazolo[3,4-d]pyrimidin-4-yl)thio)acetyl)thiophen-2-yl)methyl)cyclopropanesulfonamide]

IC50, ≤ 100 nM:
Cc1nc(SCC(=O)c2ccc(CNC(=O)CO)s2)c2cc(N3CCCOCC3)ccc2n1 [Example 83, 2-hydroxy-N-((5-(2-((2-methyl-6-(1,4-oxazepan-4-yl)quinazolin-4-yl)thio)acetyl)thiophen-2-yl)methyl)acetamide]
Cc1nc(SCC(=O)c2ccc(CNC(=O)CO)s2)c2cc(N3CCC(F)(F)C3)ccc2n1 [Example 84, N-((5-(2-((6-(3,3-difluoropyrrolidin-1-yl)-2-methylquinazolin-4-yl)thio)acetyl)thiophen-2-yl)methyl)-2-hydroxyacetamide]
Cc1nc(SCC(=O)c2ccc(CNC(=O)CO)s2)c2cc(N3CCN(C)CC3)ccc2n1 [Example 85, 2-hydroxy-N-((5-(2-((2-methyl-6-(4-methylpiperazin-1-yl)quinazolin-4-yl)thio)acetyl)thiophen-2-yl)methyl)acetamide]
Cc1nc(SCC(=O)c2ccc(CNC(=O)C3CC3(F)F)s2)c2cccnc2n1 (stereo not shown) [Example 110, 2,2-difluoro-N-((5-(2-((2-methylpyrido[2,3-d]pyrimidin-4-yl)thio)acetyl)thiophen-2-yl)methyl)cyclopropane-1-carboxamide]
O=C(CO)NCc1ccc(C(=O)CSc2nc(C(F)(F)F)nc3ncccc23)s1 [Example 113, 2-hydroxy-N-((5-(2-((2-(trifluoromethyl)pyrido[2,3-d]pyrimidin-4-yl)thio)acetyl)thiophen-2-yl)methyl)acetamide]
O=C(CSc1nc(C(F)(F)F)nc2ncccc12)c1ccc(CNC(=O)C2CC2(F)F)s1 (stereo not shown) [Example 114, 2,2-difluoro-N-((5-(2-((2-(trifluoromethyl)pyrido[2,3-d]pyrimidin-4-yl)thio)acetyl)thiophen-2-yl)methyl)cyclopropane-1-carboxamide]
O=C(CO)NCc1ccc(C(=O)CSc2nc3ccc(C(F)(F)F)nc3o2)s1 [Example 117, 2-hydroxy-N-((5-(2-((5-(trifluoromethyl)oxazolo[5,4-b]157yrrolid-2-yl)thio)acetyl)thiophen-2-yl)methyl)acetamide]
Cc1nc(SCC(=O)c2ccc(CNC(=O)CO)s2)c2cc(C(F)(F)F)cnc2n1 [Example 119, 2-hydroxy-N-((5-(2-((2-methyl-6-(trifluoromethyl)pyrido[2,3-d]pyrimidin-4-yl)thio)acetyl)thiophen-2-yl)methyl)acetamide]
COc1cc2c(SCC(=O)c3ccc(CNC(=O)CO)s3)nc(C)nc2cn1 [Example 121, 2-hydroxy-N-((5-(2-((6-methoxy-2-methylpyrido[3,4-d]pyrimidin-4-yl)thio)acetyl)thiophen-2-yl)methyl)acetamide]
